# Data: US7405228B2, “Antibacterial cyano-(substituted)-methylenepiperidinophenyl oxazolidinones targeting multiple ribonucleoprotein sites” (Wockhardt Limited, priority 2002, dated 2008)
row,Compound,melting point
1,"CC1CN(c2ccc(N3C[C@H](CNc4nccs4)OC3=O)cc2F)CC/C1=C\C#N (stereo partly drawn) [Example 66, (S)-2-{3-[4-(4-cyanomethylidene-3-methylpiperidin-1-yl)-3-fluorophenyl]-2-oxo-oxazolidin-5-ylmethylamino}-1,3-thiazole]",75 to 77 °C
2,"N#CC=C1CCN(c2ccc(N3C[C@H](CN4C(=O)c5ccccc5C4=O)OC3=O)cc2F)CC1 [Example 44, (S)-N-{3-[4-(4-cyanomethylidene-piperidin-1-yl)-3-fluorophenyl]-2-oxo-oxazolidin-5-ylmethyl}-1-pthalamide]",183 to 185 °C
3,"N#CC=C1CCN(c2ccc(N3C[C@H](CNC=O)OC3=O)cc2F)CC1 [Example 8, (S)-N-{3-[4-(4-cyanomethylidene-piperidin-1-yl)-3-fluorophenyl]-2-oxo-oxazolidin-5-ylmethyl}-formamide]",183 to 184 °C
4,"CCOC(=O)c1cnnn1CC1CN(c2ccc(N3CCC(=CC#N)CC3)c(F)c2)C(=O)O1 (stereo in doubt) [Example 27, (S)-1-{3-[4-(4-cyanomethylidene-piperidin-1-yl)-3-fluorophenyl]-2-oxo-oxazolidin-5-ylmethyl}-5-carboethoxy-1,2,3-triazole]",70 to 72 °C
5,"N#CC=C1CCN(c2ccc(N3C[C@H](CNC(=O)CO)OC3=O)cc2F)CC1 [Example 13, (S)-N-{3-[4-(4-cyanomethylidene-piperidin-1-yl)-3-fluorophenyl]-2-oxo-oxazolidin-5-ylmethyl}-2-hydroxyacetamide]",68 to 70 °C
6,"CC(C#N)=C1CCN(c2ccc(N3C[C@H](CNC(=O)CN)OC3=O)cc2F)CC1 [Example 76, (S)-N-{3-[4-(4-(1-cyanoethylidene)-piperidin-1-yl)-3-fluorophenyl]-2-oxo-oxazolidin-5-ylmethylamino}-carboxymethylamine]",141 to 142 °C
7,"CC(C#N)=C1CCN(c2ccc(N3C[C@H](CNC(=O)CC#N)OC3=O)cc2F)CC1 [Example 75, (S)-N-{3-[4-(4-(1-cyanoethylidene)-piperidin-1-yl)-3-fluorophenyl]-2-oxo-oxazolidin-5-ylmethyl}-2-cyanoacetamide]",194 to 196 °C
8,"CS(=O)(=O)OC[C@H]1CN(c2ccc(N3CCC(=CC#N)CC3)c(F)c2)C(=O)O1 [Example 54, (R)-{3-[4-(4-cyanomethylidene-piperidin-1-yl)-3-fluorophenyl]-2-oxo-oxazolidin-5-ylmethyl}-methanesulphonate]",126 to 128 °C
9,"CC(C)COC(=O)NC[C@H]1CN(c2ccc(N3CC/C(=C\C#N)C(F)C3)c(F)c2)C(=O)O1 (stereo partly drawn) [Example 58, (S)-N-{3-[4-(4-cyanomethylidene-3-fluoropiperidin-1-yl)-3-fluorophenyl]-2-oxo-oxazolidin-5-ylmethyl}-isobutylcarbamate]",162 to 164 °C
10,"N#CC=C1CCN(c2ccc(N3C[C@H](CNC(=O)C4COC(=O)N4)OC3=O)cc2F)CC1 (stereo in doubt) [Example 24, (S)-N-{3-[4-(4-cyanomethylidene-piperidin-1-yl)-3-fluorophenyl]-2-oxo-oxazolidin-5-ylmethyl}-2-oxo-oxazolidin-4-yl-carboxamide]",145 °C
11,"CC(=O)NC[C@H]1CN(c2ccc(N3CC/C(=C\C#N)C(C)C3)c(F)c2)C(=O)O1 (stereo partly drawn) [Example 63, (S)-N-{3-[4-(4-cyanomethylidene-3-methylpiperidin-1-yl)-3-fluorophenyl]-2-oxo-oxazolidin-5-ylmethyl}-acetamide]",152 to 153 °C
12,"C=CCN(C#N)C[C@H]1CN(c2ccc(N3CCC(=CC#N)CC3)c(F)c2)C(=O)O1 [Example 22, (S)-{N-{3-[4-(4-cyanomethylidene-piperidin-1-yl)-3-fluorophenyl]-2-oxo-oxazolidin-5-ylmethylamino}N-cyano}-prop-2-ene]",111 to 113 °C
13,"N#CC=C1CCN(c2ccc(N3CC(Cn4cc(C#N)nn4)OC3=O)cc2F)CC1 (stereo in doubt) [Example 28, (S)-1-{3-[4-(4-cyanomethylidene-piperidin-1-yl)-3-fluorophenyl]-2-oxo-oxazolidin-5-ylmethyl}-4-cyano-1,2,3-triazole]",78 to 80 °C
14,"CC1CN(c2ccc(N3C[C@H](CNC(=O)CC#N)OC3=O)cc2F)CC/C1=C\C#N (stereo partly drawn) [Example 65, (S)-N-{3-[4-(4-cyanomethylidene-3-methylpiperidin-1-yl)-3-fluorophenyl]-2-oxo-oxazolidin-5-ylmethyl}-2-cyanoacetamide]",102 to 104 °C
15,"N#CC=C1CCN(c2ccc(N3C[C@H](CNC(=O)CBr)OC3=O)cc2F)CC1 [Example 34, (S)-N-{3-[4-(4-cyanomethylidene-piperidin-1-yl)-3-fluorophenyl]-2-oxo-oxazolidin-5-ylmethyl}-bromoacetamide]",160 to 162 °C

# Second part, the molecule after the results:
row,melting point,Compound
1,192 to 194 °C,"CC(=O)NC[C@H]1CN(c2ccc(N3CCC(=C(C#N)CCO)CC3)c(F)c2)C(=O)O1 [Example 113, (S)-N-{3-[4-(4-(1-cyano-3-hydroxy-propylidene)-piperidin-1-yl)-3-fluorophenyl]-2-oxo-oxazolidin-5-ylmethyl}-acetamide]"
2,149 to 150 °C,"CC(=O)NC[C@H]1CN(c2ccc(N3CC=C(CC#N)C(C)C3)c(F)c2)C(=O)O1 (stereo partly drawn) [Example 161, (S)-N-{3-[4-(4-cyanomethyl-3-methyl-4,5-dehydropiperidin-1-yl)-3-fluorophenyl]-2-oxo-oxazolidin-5-ylmethyl}-acetamide]"
3,200 to 202 °C,"N#CCC1CCN(c2ccc(N3CC(Cn4cc(C#N)nn4)OC3=O)cc2F)CC1 (stereo in doubt) [Example 128, (S)-1-{3-[4-(4-cyanomethyl-piperidin-1-yl)-3-fluorophenyl]-2-oxo-oxazolidin-5-ylmethyl}-4-cyano-1,2,3-triazole]"
4,210 to 212 °C,"CC(=O)NC[C@H]1CN(c2ccc(N3CCC(C(C#N)n4ccnc4)CC3)c(F)c2)C(=O)O1 (stereo partly drawn) [Example 136, (S)-N-{3-[4-(4-(1-cyano-1-(imidazol-1-yl))-methylpiperidin-1-yl)-3-fluorophenyl]-2-oxo-oxazolidin-5-ylmethyl}-acetamide]"
5,248 to 250 °C,"N#CCC1CCN(c2ccc(N3CC(Cn4cc(C(N)=O)nn4)OC3=O)cc2F)CC1 (stereo in doubt) [Example 127, (S)-1-{3-[4-(4-cyanomethyl-piperidin-1-yl)-3-fluorophenyl]-2-oxo-oxazolidin-5-ylmethyl}-4-carboxamido-1,2,3-triazole]"
6,198 to 200 °C,"CCOC(=O)c1cn(CC2CN(c3ccc(N4CCC(CC#N)CC4)cc3)C(=O)O2)nn1 (stereo in doubt) [Example 123, (S)-1-{3-[4-(4-cyanomethyl-piperidin-1-yl)-phenyl]-2-oxo-oxazolidin-5-ylmethyl}-4-carboethoxy-1,2,3-triazole]"
7,196 to 198 °C,"CC(=O)NC[C@H]1CN(c2ccc(N3CCC(=C(C#N)n4ccnc4)CC3)c(F)c2)C(=O)O1 [Example 102, (S)-N-{3-[4-(4-(1-cyano-1-(imidazol-1-yl)-methylidene)-piperidin-1-yl)-3-fluorophenyl]-2-oxo-oxazolidin-5-ylmethyl}-acetamide]"
8,204 to 206 °C,"CC(=O)NC[C@H]1CN(c2ccc(N3CCC(=C(C#N)n4ccnc4C)CC3)c(F)c2)C(=O)O1 [Example 103, (S)-N-{3-[4-(4-(1-cyano-1-(2-methyl-imidazol-1-yl)-methylidene)-piperidin-1-yl)-3-fluorophenyl]-2-oxo-oxazolidin-5-ylmethyl}-acetamide]"
9,194 to 196 °C,"CC(=O)NC[C@H]1CN(c2ccc(N3CCC(=C(C#N)n4cncn4)CC3)c(F)c2)C(=O)O1 [Example 104, (S)-N-{3-[4-(4-(1-cyano-1-(1,2,4-triazol-1-yl)-methylidene)-piperidin-1-yl)-3fluorophenyl]-2-oxo-oxazolidin-5-ylmethyl}-acetamide]"
10,114 to 116 °C,"CS(=O)(=O)OC[C@H]1CN(c2ccc(N3CCC(CC#N)CC3)cc2)C(=O)O1 [Example 125, (R)-{3-[4-(4-cyanomethyl-piperidin-1-yl)-phenyl]-2-oxo-oxazolidin-5-ylmethyl}-methanesulphonate]"
11,136 to 138 °C,"CC(=O)NC[C@H]1CN(c2ccc(N3CCC(C(C#N)COS(C)(=O)=O)CC3)c(F)c2)C(=O)O1 (stereo partly drawn) [Example 134, (S)-N-{3-[4-(4-(1-cyano-2-methanesulphonyloxy)-ethylpiperidin-1-yl)-3-fluorophenyl]-2-oxo-oxazolidin-5-ylmethyl}-acetamide]"
12,100 to 102 °C,"CC(C#N)=C1CCN(c2ccc(N3C[C@H](CO)OC3=O)cc2F)CC1 [Example 82, (R)-{3-[4-(4-(1-cyanoethylidene)-piperidin-1-yl)-3-fluorophenyl]-2-oxo-oxazolidin-5-ylmethyl}-alcohol]"
13,220 to 222 °C,"CS(=O)(=O)OC[C@H]1CN(c2ccc(N3CCC(C(C#N)C(N)=O)CC3)c(F)c2)C(=O)O1 (stereo partly drawn) [Example 158, (R)-{3-[4-(4-(1-cyano-1-carboxamido)-methylpiperidin-1-yl)-3-fluorophenyl]-2-oxo-oxazolidin-5-ylmethyl}-methanesulphonate]"
14,166 to 168 °C,"CC(C#N)=C1CCN(c2ccc(N3C[C@H](CNC(=O)C(Cl)(Cl)Cl)OC3=O)cc2F)CC1 [Example 80, (S)-N-{3-[4-(4-(1-cyanoethylidene)-piperidin-1-yl)-3-fluorophenyl]-2-oxo-oxazolidin-5-ylmethyl}-trichloroacetamide]"
15,200 to 203 °C,"CCC(C#N)=C1CCN(c2ccc(N3C[C@H](CNC(=O)CBr)OC3=O)cc2F)CC1 [Example 92, (S)-N-{3-[4-(4-(1-cyanopropylidene)-piperidin-1-yl)-3-fluorophenyl]-2-oxo-oxazolidin-5-ylmethyl}-bromoacetamide]"
16,148 to 150 °C,"CC(=O)NC[C@H]1CN(c2ccc(N3CC/C(=C(\C)C#N)C(F)C3)c(F)c2)C(=O)O1 (stereo partly drawn) [Example 87, Z-(S)-N-{3-[4-(4-(1-cyanoethylidene)-3-fluoropiperidin-1-yl)-3-fluorophenyl]-2-oxo-oxazolidin-5-ylmethyl}-acetamide]"
17,85 to 86 °C,"N#CCC1CCN(c2ccc(N3CC(CN=[N+]=[N-])OC3=O)cc2)CC1 (stereo in doubt) [Example 122, (S)-{3-[4-(4-cyanomethyl-piperidin-1-yl)-phenyl]-2-oxo-oxazolidin-5-ylmethyl}-azide]"
